Measured values reported in PubChem BioAssay (NCI).
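Each compound was tested at five concentrations against cells in 96-well plates for 48 hours. Here, GI50 denotes the concentration required for 50% inhibition of growth. TGI denotes the concentration required for complete inhibition of growth.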

How the values were obtained:
Assay in all cases: NCI tumour cell line growth inhibition, 48 h
RPMI-8226 leukemia = test system: RPMI-8226 leukemia
COLO 205 colon = test system: COLO 205 colon
HCT-15 colon = test system: HCT-15 colon
MDA-MB-468 breast = test system: MDA-MB-468 breast
A549 NSCLC = test system: A549 NSCLC
OVCAR-8 ovarian = test system: OVCAR-8 ovarian
M14 melanoma = test system: M14 melanoma
786-0 renal = test system: 786-0 renal
IGROV1 ovarian = test system: IGROV1 ovarian
SF-539 CNS = test system: SF-539 CNS
EKVX NSCLC = test system: EKVX NSCLC
UO-31 renal = test system: UO-31 renal
RXF 393 renal = test system: RXF 393 renal
NCI-H522 lung = test system: NCI-H522 lung
MCF7 breast = test system: MCF7 breast
SK-MEL-5 melanoma = test system: SK-MEL-5 melanoma
ACHN renal = test system: ACHN renal
SNB-19 CNS = test system: SNB-19 CNS
SN12C renal = test system: SN12C renal
NCI-H23 lung = test system: NCI-H23 lung
A498 renal = test system: A498 renal
HCC-2998 colon = test system: HCC-2998 colon
U251 CNS = test system: U251 CNS
KM12 colon = test system: KM12 colon
SK-MEL-28 melanoma = test system: SK-MEL-28 melanoma
SK-OV-3 ovarian = test system: SK-OV-3 ovarian
SF-268 CNS = test system: SF-268 CNS
MDA-MB-231 breast = test system: MDA-MB-231 breast
OVCAR-5 ovarian = test system: OVCAR-5 ovarian
K-562 leukemia = test system: K-562 leukemia
CAKI-1 renal = test system: CAKI-1 renal
HOP-92 NSCLC = test system: HOP-92 NSCLC
MOLT-4 leukemia = test system: MOLT-4 leukemia
UACC-62 melanoma = test system: UACC-62 melanoma
SNB-75 CNS = test system: SNB-75 CNS
UACC-257 melanoma = test system: UACC-257 melanoma
NCI-H226 lung = test system: NCI-H226 lung
HCT-116 colon = test system: HCT-116 colon
T-47D breast = test system: T-47D breast
BT-549 breast = test system: BT-549 breast
NCI-H460 lung = test system: NCI-H460 lung
HS 578T breast = test system: HS 578T breast
CCRF-CEM leukemia = test system: CCRF-CEM leukemia
OVCAR-4 ovarian = test system: OVCAR-4 ovarian
DU-145 prostate = test system: DU-145 prostate
TK-10 renal = test system: TK-10 renal
LOX IMVI melanoma = test system: LOX IMVI melanoma
OVCAR-3 ovarian = test system: OVCAR-3 ovarian
HT29 colon = test system: HT29 colon
SW-620 colon = test system: SW-620 colon
SF-295 CNS = test system: SF-295 CNS
MALME-3M melanoma = test system: MALME-3M melanoma
HL-60(TB) leukemia = test system: HL-60(TB) leukemia
PC-3 prostate = test system: PC-3 prostate
HOP-62 NSCLC = test system: HOP-62 NSCLC
MDA-MB-435 = test system: MDA-MB-435

CCN(CC)c1ccnc(CNCCSC(c2ccccc2)(c2ccccc2)c2ccc(C)cc2)c1
GI50 (RPMI-8226 leukemia): 2.05 µM
TGI (RPMI-8226 leukemia): 4.88 µM
GI50 (COLO 205 colon): 1.84 µM
TGI (COLO 205 colon): 3.39 µM
GI50 (HCT-15 colon): 1.67 µM
TGI (HCT-15 colon): 3.15 µM
GI50 (MDA-MB-468 breast): 1.83 µM
TGI (MDA-MB-468 breast): 3.85 µM
GI50 (A549 NSCLC): 4.98 µM
TGI (A549 NSCLC): 20.6 µM
GI50 (OVCAR-8 ovarian): 2.49 µM
TGI (OVCAR-8 ovarian): 6.12 µM
GI50 (M14 melanoma): 1.84 µM
TGI (M14 melanoma): 3.68 µM
GI50 (786-0 renal): 1.71 µM
TGI (786-0 renal): 3.21 µM
GI50 (IGROV1 ovarian): 3.21 µM
TGI (IGROV1 ovarian): 12.3 µM
GI50 (SF-539 CNS): 1.87 µM
TGI (SF-539 CNS): 3.52 µM
GI50 (EKVX NSCLC): 1.78 µM
TGI (EKVX NSCLC): 3.97 µM
GI50 (UO-31 renal): 2.66 µM
TGI (UO-31 renal): 12.7 µM
GI50 (RXF 393 renal): 2.23 µM
TGI (RXF 393 renal): 7.24 µM
GI50 (NCI-H522 lung): 2.27 µM
TGI (NCI-H522 lung): 5.61 µM
GI50 (MCF7 breast): 1.38 µM
TGI (MCF7 breast): 2.85 µM
GI50 (SK-MEL-5 melanoma): 1.73 µM
TGI (SK-MEL-5 melanoma): 3.12 µM
GI50 (ACHN renal): 3.22 µM
TGI (ACHN renal): 11.7 µM
GI50 (SNB-19 CNS): 3.13 µM
TGI (SNB-19 CNS): 12 µM
GI50 (SN12C renal): 2.4 µM
TGI (SN12C renal): 6.29 µM
GI50 (NCI-H23 lung): 1.7 µM
TGI (NCI-H23 lung): 3.27 µM
GI50 (A498 renal): 12.4 µM
TGI (A498 renal): 27.4 µM
GI50 (HCC-2998 colon): 1.69 µM
TGI (HCC-2998 colon): 3.07 µM
GI50 (U251 CNS): 2.14 µM
TGI (U251 CNS): 6.02 µM
GI50 (KM12 colon): 2.33 µM
TGI (KM12 colon): 5.79 µM
GI50 (SK-MEL-28 melanoma): 1.86 µM
TGI (SK-MEL-28 melanoma): 4.16 µM
GI50 (SK-OV-3 ovarian): 3.31 µM
TGI (SK-OV-3 ovarian): 11.5 µM
GI50 (SF-268 CNS): 3.35 µM
TGI (SF-268 CNS): 13 µM
GI50 (MDA-MB-231 breast): 1.99 µM
TGI (MDA-MB-231 breast): 4.53 µM
GI50 (OVCAR-5 ovarian): 2.67 µM
TGI (OVCAR-5 ovarian): 11.3 µM
GI50 (K-562 leukemia): 2.34 µM
TGI (K-562 leukemia): 6.15 µM
GI50 (CAKI-1 renal): 3.11 µM
TGI (CAKI-1 renal): 12.8 µM
GI50 (HOP-92 NSCLC): 1.62 µM
TGI (HOP-92 NSCLC): 5.87 µM
GI50 (MOLT-4 leukemia): 2.85 µM
TGI (MOLT-4 leukemia): 7.28 µM
GI50 (UACC-62 melanoma): 2.64 µM
TGI (UACC-62 melanoma): 8.33 µM
GI50 (SNB-75 CNS): 2.87 µM
TGI (SNB-75 CNS): 14.1 µM
GI50 (UACC-257 melanoma): 3.52 µM
TGI (UACC-257 melanoma): 11.8 µM
GI50 (NCI-H226 lung): 4.45 µM
TGI (NCI-H226 lung): 20.4 µM
GI50 (HCT-116 colon): 1.67 µM
TGI (HCT-116 colon): 3.18 µM
GI50 (T-47D breast): 2.5 µM
TGI (T-47D breast): 9.04 µM
GI50 (BT-549 breast): 1.9 µM
TGI (BT-549 breast): 5.46 µM
GI50 (NCI-H460 lung): 1.98 µM
TGI (NCI-H460 lung): 3.79 µM
GI50 (HS 578T breast): 2.39 µM
TGI (HS 578T breast): 7.84 µM
GI50 (CCRF-CEM leukemia): 1.96 µM
TGI (CCRF-CEM leukemia): 5.19 µM
GI50 (OVCAR-4 ovarian): 3.7 µM
TGI (OVCAR-4 ovarian): 14.5 µM
GI50 (DU-145 prostate): 2.92 µM
TGI (DU-145 prostate): 8.29 µM
GI50 (TK-10 renal): 4.37 µM
TGI (TK-10 renal): 17 µM
GI50 (LOX IMVI melanoma): 1.67 µM
TGI (LOX IMVI melanoma): 3.09 µM
GI50 (OVCAR-3 ovarian): 2.21 µM
TGI (OVCAR-3 ovarian): 5.07 µM
GI50 (HT29 colon): 1.91 µM
TGI (HT29 colon): 4.01 µM
GI50 (SW-620 colon): 2.47 µM
TGI (SW-620 colon): 6.86 µM
GI50 (SF-295 CNS): 1.59 µM
TGI (SF-295 CNS): 3.01 µM
GI50 (MALME-3M melanoma): 1.68 µM
TGI (MALME-3M melanoma): 3.13 µM
GI50 (HL-60(TB) leukemia): 2.22 µM
TGI (HL-60(TB) leukemia): 4.52 µM
GI50 (PC-3 prostate): 2.27 µM
TGI (PC-3 prostate): 7.77 µM
GI50 (HOP-62 NSCLC): 2.29 µM
TGI (HOP-62 NSCLC): 6.21 µM
GI50 (MDA-MB-435): 2.26 µM
TGI (MDA-MB-435): 5.38 µM
